Measured values: PubChem BioAssay (NCI)
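How tested: cells in 96-well plates exposed to compound for 48 hours at five concentrations. At the GI50, growth is halved. TGI: concentration producing complete growth inhibition.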

Experiments:
Assay in all cases: NCI tumour cell line growth inhibition, 48 h
[1] = test system: MDA-MB-231 breast
[2] = test system: MCF7 breast
[3] = test system: SF-295 CNS
[4] = test system: SR leukemia
[5] = test system: IGROV1 ovarian
[6] = test system: CAKI-1 renal
[7] = test system: SK-MEL-2 melanoma
[8] = test system: SF-539 CNS
[9] = test system: SK-OV-3 ovarian
[10] = test system: UACC-62 melanoma
[11] = test system: PC-3 prostate
[12] = test system: NCI-H522 lung
[13] = test system: SK-MEL-28 melanoma
[14] = test system: DU-145 prostate
[15] = test system: U251 CNS
[16] = test system: HCC-2998 colon
[17] = test system: MALME-3M melanoma
[18] = test system: NCI-H460 lung
[19] = test system: SNB-19 CNS
[20] = test system: HCT-116 colon
[21] = test system: A549 NSCLC
[22] = test system: CCRF-CEM leukemia
[23] = test system: SF-268 CNS
[24] = test system: HS 578T breast
[25] = test system: HOP-92 NSCLC
[26] = test system: T-47D breast
[27] = test system: HCT-15 colon
[28] = test system: ACHN renal
[29] = test system: M14 melanoma
[30] = test system: BT-549 breast
[31] = test system: OVCAR-3 ovarian
[32] = test system: LOX IMVI melanoma
[33] = test system: UACC-257 melanoma
[34] = test system: NCI/ADR-RES ovarian
[35] = test system: OVCAR-8 ovarian
[36] = test system: OVCAR-4 ovarian
[37] = test system: TK-10 renal
[38] = test system: SK-MEL-5 melanoma
[39] = test system: HOP-62 NSCLC
[40] = test system: K-562 leukemia
[41] = test system: RPMI-8226 leukemia
[42] = test system: 786-0 renal
[43] = test system: RXF 393 renal
[44] = test system: MOLT-4 leukemia
[45] = test system: OVCAR-5 ovarian
[46] = test system: NCI-H23 lung
[47] = test system: SN12C renal
[48] = test system: SW-620 colon
[49] = test system: HT29 colon
[50] = test system: HL-60(TB) leukemia
[51] = test system: COLO 205 colon
[52] = test system: NCI-H226 lung
[53] = test system: MDA-MB-435
[54] = test system: KM12 colon
[55] = test system: UO-31 renal
[56] = test system: A498 renal
[57] = test system: SNB-75 CNS

SMILES: Cc1cc(Nc2nc(-c3ccc(F)cc3)nc3ccccc23)n[nH]1
- GI50 [1]: 9.15 µM
- TGI [1]: 26.8 µM
- GI50 [2]: 2.79 µM
- TGI [2]: 18.8 µM
- GI50 [3]: 5.36 µM
- TGI [3]: 21.2 µM
- GI50 [4]: 1.34 µM
- TGI [4]: 38.4 µM
- GI50 [5]: 0.983 µM
- TGI [5]: 9.17 µM
- GI50 [6]: 0.453 µM
- TGI [6]: 17.6 µM
- GI50 [7]: 0.811 µM
- TGI [7]: 16 µM
- GI50 [8]: 2.81 µM
- TGI [8]: 15.4 µM
- GI50 [9]: 0.855 µM
- TGI [9]: 41.8 µM
- GI50 [10]: 3.96 µM
- TGI [10]: 19.6 µM
- GI50 [11]: 2.26 µM
- TGI [11]: 21.4 µM
- GI50 [12]: 3.44 µM
- TGI [12]: 18.8 µM
- GI50 [13]: 8.46 µM
- TGI [13]: 21.7 µM
- GI50 [14]: 6.44 µM
- TGI [14]: > 48.9 µM
- GI50 [15]: 1.75 µM
- TGI [15]: 21.4 µM
- GI50 [16]: 5.24 µM
- TGI [16]: 25.4 µM
- GI50 [17]: 16.4 µM
- TGI [17]: 31.8 µM
- GI50 [18]: 3.17 µM
- TGI [18]: 21 µM
- GI50 [19]: 8.48 µM
- TGI [19]: > 93.9 µM
- GI50 [20]: 0.76 µM
- TGI [20]: 15.5 µM
- GI50 [21]: 1.77 µM
- TGI [21]: 18.1 µM
- GI50 [22]: 8.55 µM
- TGI [22]: 39.6 µM
- GI50 [23]: 3.85 µM
- TGI [23]: 24.5 µM
- GI50 [24]: 0.842 µM
- TGI [24]: 7.54 µM
- GI50 [25]: 0.72 µM
- TGI [25]: 8.64 µM
- GI50 [26]: 1.92 µM
- TGI [26]: 11.8 µM
- GI50 [27]: 0.673 µM
- TGI [27]: 33.9 µM
- GI50 [28]: 0.818 µM
- TGI [28]: 39.5 µM
- GI50 [29]: 0.748 µM
- TGI [29]: 19.4 µM
- GI50 [30]: 7.3 µM
- TGI [30]: 21.6 µM
- GI50 [31]: 4.9 µM
- TGI [31]: 31.6 µM
- GI50 [32]: 1.05 µM
- TGI [32]: 11.2 µM
- GI50 [33]: 10 µM
- TGI [33]: 22.7 µM
- GI50 [34]: 4.5 µM
- TGI [34]: 52.2 µM
- GI50 [35]: 7.28 µM
- TGI [35]: 36.9 µM
- GI50 [36]: 3.2 µM
- TGI [36]: 27.8 µM
- GI50 [37]: 1.25 µM
- TGI [37]: 33.4 µM
- GI50 [38]: 7.4 µM
- TGI [38]: 20.3 µM
- GI50 [39]: 4.76 µM
- TGI [39]: 20.3 µM
- GI50 [40]: 3.91 µM
- TGI [40]: 24.1 µM
- GI50 [41]: 9.22 µM
- TGI [41]: 39.1 µM
- GI50 [42]: 1.99 µM
- TGI [42]: 38.1 µM
- GI50 [43]: 0.757 µM
- TGI [43]: 5.09 µM
- GI50 [44]: 10.1 µM
- TGI [44]: 35.1 µM
- GI50 [45]: 10.1 µM
- TGI [45]: 34.5 µM
- GI50 [46]: 5.74 µM
- TGI [46]: 24.9 µM
- GI50 [47]: 3.1 µM
- TGI [47]: 25.2 µM
- GI50 [48]: 2.1 µM
- TGI [48]: 15.7 µM
- GI50 [49]: 0.691 µM
- TGI [49]: 7.5 µM
- GI50 [50]: 2.78 µM
- TGI [50]: 34.8 µM
- GI50 [51]: 1.35 µM
- TGI [51]: 3.35 µM
- GI50 [52]: 3.36 µM
- TGI [52]: 18 µM
- GI50 [53]: 1.65 µM
- TGI [53]: 16.2 µM
- GI50 [54]: 0.0631 µM
- TGI [54]: 12 µM
- GI50 [55]: 0.574 µM
- TGI [55]: 15 µM
- GI50 [56]: 0.371 µM
- TGI [56]: 5.21 µM
- GI50 [57]: 0.469 µM
- TGI [57]: 7.42 µM
